Assay results from PMC10743388, “Jacalin-Curcumin Complex Sensitizes the Breast Cancer MDA-MB-231 Cell Line” (International Journal of Molecular Sciences, 2023).

Biological target: T1, jacalin (Artocarpus integer, UniProt P18670+P18671)
T1 construct: native tetrameric lectin isolated from jackfruit seeds; labelled with Red-NHS 2nd Generation (Alexa Fluor 647) for MST
Experiment: microscale thermophoresis with labelled jacalin; steady-state fluorescence titration also gave KD […]
Type: binding

T1 sequence (P18670 whole entry): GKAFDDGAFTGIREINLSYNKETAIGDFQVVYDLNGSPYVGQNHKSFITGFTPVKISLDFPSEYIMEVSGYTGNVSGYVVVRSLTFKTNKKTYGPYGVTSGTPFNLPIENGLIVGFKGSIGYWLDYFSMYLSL
T1 sequence (P18671 whole entry): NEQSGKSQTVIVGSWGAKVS

Work on COc1cc(/C=C/C(=O)CC(=O)/C=C/c2ccc(O)c(OC)c2)ccc1O [curcumin] yielded a Kd of 450 nM.
